Read-outs that look alike come from different tables or passages of the source.
Experiments:
solid tumor = assay: In vivo toxicity and efficacy in tumor bearing mice (Tables 5-7); design: species or system mouse; conditions: i.p., in words
CCRF-CEM/VBL cells = assay: Cytotoxicity, CCRF-CEM resistant to vinblastine; format: cell-based, human; conditions: for IC50 / IC90: Homo sapiens, CCRF-CEM; for IC90: read-out: Cytotoxic Concentration IC90
From the text: (§1) | cell growth by 50% (IC50) in μM.

[1] = tested on: Lewis lung adenocarcinoma; assay: Anticancer activity in B6D2F1 mice bearing Lewis lung adenocarcinoma; format: in vivo, mouse
Procedure: ^a Tumor (2.5 × 10E6 cells) was inoculated S.C. on day (-3).
Treatment started on day 1, I.P., Q.D.X5. Control had 6 mice and each dos
had 5 mice. Tumor size was evaluated on day 7, day 10 and day 14.

MT2 cells = assay: Cytotoxicity, MT2; format: cell-based; conditions: Table 15, MT2
[2] = tested on: Human breast adenocarcinoma cells (SK-Br-3); assay: Cytotoxicity, SK-Br-3; format: cell-based; conditions: for IC50 / IC90: Homo sapiens; for IC90: read-out: Cytotoxic Concentration IC90
From the text: as §1

MT-4 leukemic cells = assay: Growth inhibition, XTT assay, MT-4; format: cell-based; conditions: Table 8, MT-4, XTT
Procedure: Cells were platted on day 1, drug was added on day 2, and XTT assays (for HL-60, MT-2, MT-4 leukemic cells) or SRB assays (for 833K and SK-Br-3 solid tumor cells) were carried out on day 5.

sarcoma 180 = assay: Antitumor activity against sarcoma 180 in mice (s.c. tumor, i.p. treatment); format: in vivo, mouse
Procedure: ^a Tumor (2 × 10^6 cells) was inoculated s.c. Treatment
started day 4, QD × 5, i.p.; control had nine mice, and each dose
two mice; tumor size was evaluated on Day 7 after the beginning of
started day 4, I.P., QD × 5; control had 3 mice, and each dose had
mice; Tumor size was evaluated on day 7 after the beginning of treatment.

[3] = Table 14, vinblastine-resistant (VLB100)
[4] = Table 3, CCRF-CEM/VBL, EQI-6 = (1)
[5] = Table 11, 0.5 mg/kg i.p. Q.D.X5, Day 7
[6] = Table 11, 0.5 mg/kg i.p. Q.D.X5, Day 10
[7] = Table 11, 1.0 mg/kg i.p. Q.D.X5, Day 7
[8] = Table 11, 1.0 mg/kg i.p. Q.D.X5, Day 10
[9] = Table 11, 1.5 mg/kg i.p. Q.D.X5, Day 7
[10] = Table 11, 1.5 mg/kg i.p. Q.D.X5, Day 10
[11] = Table 11, 2.0 mg/kg i.p. Q.D.X5, Day 7
[12] = Table 11, 2.0 mg/kg i.p. Q.D.X5, Day 10
[13] = Table 6, 0.2 mg/kg i.p. QD×5, day 7
[14] = Table 6, 0.5 mg/kg i.p. QD×5, day 7
[15] = Table 6, 2.0 mg/kg i.p. QD×5, day 7

## CO[C@@]12[C@H](COC(N)=O)C3=C(C(=O)C(C)=C(N)C3=O)N1C[C@@H]1N[C@@H]12 [mitomycin C]
Solid tumor
  solid tumor growth inhibition / therapeutic efficacy: Therapeutic efficacy in mice for both appeared similar
CCRF-CEM/VBL cells; Table 2, CCRF/VBL (MDR/pg-p), read-out: concentration required to inhibit cell growth by 50% (IC50)
  IC50: 566 nM
CCRF-CEM/VBL cells; Table 3, CCRF-CEM/VBL, read-out: Cytotoxic Concentration IC50
  IC50: 566 nM
CCRF-CEM/VBL cells; Table 3, CCRF-CEM/VBL
  IC90: 2330 nM
  Cytotoxic Concentration IC95: 3770 nM
CCRF-CEM/VBL cells; Table 14, vinblastine-resistant (VLB100), read-out: Cytotoxic Concentration IC50
  IC50: 917 nM
CCRF-CEM/VBL cells; [3]
  IC90: 2400 nM
  Cytotoxic Concentration IC95: 3327 nM
CCRF-CEM/VBL cells; [4]
  ratio of IC50 to EQI-6 (in parentheses): 299.5 ×
  ratio of IC90 to EQI-6 (in parentheses): 375.8 ×
  ratio of IC95 to EQI-6 (in parentheses): 405.4 ×
[1]; [5]
  AWC (average weight change): -1.5 g
  Avg Tumor Vol (T/C): 0.530
[1]; [6]
  AWC (average weight change): -0.1 g
  Avg Tumor Vol (T/C): 0.712
[1]; [7]
  AWC (average weight change): -0.8 g
  Avg Tumor Vol (T/C): 0.380
[1]; [8]
  AWC (average weight change): -0.9 g
  Avg Tumor Vol (T/C): 0.451
[1]; [9]
  AWC (average weight change): -1.5 g
  Avg Tumor Vol (T/C): 0.340
[1]; [10]
  AWC (average weight change): -1.3 g
  Avg Tumor Vol (T/C): 0.402
[1]; Table 11, 2.0 mg/kg i.p. Q.D.X5
  mortality: One of 5 mice died on day 7
[1]; [11]
  AWC (average weight change): -1.8 g
  Avg Tumor Vol (T/C): 0.286
[1]; [12]
  AWC (average weight change): 1.6 g
  Avg Tumor Vol (T/C): 0.485
MT2 cells; Homo sapiens, read-out: Cytotoxic Concentration IC50
  IC50: 169 nM
MT2 cells; Homo sapiens, read-out: Cytotoxic Concentration IC90
  IC90: 398 nM
MT2 cells
  Cytotoxic Concentration IC95: 532 nM
[2]; SK-BR-3, Table 2, SK-Br-3 (Breast), read-out: concentration required to inhibit cell growth by 50% (IC50)
  IC50: 993 nM
[2]; SK-BR-3, Table 4, SK-Br-3, read-out: Cytotoxic Concentration IC50
  IC50: 993 nM
[2]; SK-BR-3, Table 4, SK-Br-3
  IC90: 21800 nM
[2]; SK-BR-3, Table 13, SK-Br-3, read-out: Cytotoxic Concentration IC50
  IC50: 2340 nM
[2]; SK-BR-3, Table 13, SK-Br-3
  IC90: 62900 nM
[2]; Table 4, SK-Br-3
  Cytotoxic Concentration IC95: 62300 nM
[2]; Table 4, SK-Br-3, EQI-6 = (1)
  ratio of IC50 to EQI-6 (in parentheses): 29.2 ×
  ratio of IC90 to EQI-6 (in parentheses): 16.6 ×
  ratio of IC95 to EQI-6 (in parentheses): 187.7 ×
[2]; Table 13, SK-Br-3
  Cytotoxic Concentration IC95: 192890 nM
MT-4 leukemic cells
  IC50: 150 nM
Sarcoma 180; 0.5 mg/kg i.p. QDx5, sarcoma
  tumor inhibition: 37.5%
Sarcoma 180; [13]
  AVE TUMOR VOLUME (T/C): 0.845
  AWC (average weight change): -0.5 g
Sarcoma 180; [14]
  AVE TUMOR VOLUME (T/C): 0.625
  AWC (average weight change): -2.3 g
Sarcoma 180; [15]
  AVE TUMOR VOLUME (T/C): 0.188
  AWC (average weight change): -1.4 g

Source: patent publication US6020341A, “Enediyne quinone imines and methods of preparation and use thereof” (priority 1997, dated 2000)
